Reference: paper PMC8710297, “Identification of potent SENP1 inhibitors that inactivate SENP1/JAK2/STAT signaling pathway and overcome platinum drug resistance in ovarian cancer” (Clinical and Translational Medicine, 2021)
Values joined by “and” are separate entries in the source; they are usually repeats but may differ in a detail not shown here. Identical values can stand only once.

Experiments:
SENP1 [1] = biological target: T1, SENP1 (Homo sapiens, UniProt Q9P0U3); experiment: SENP1 activity in cells (SUMOylated JAK2, Western blot quantification); format: cell-based; parameters: endogenous in cells; host or cells: IGROV1 CR cells; details: IGROV1 CR cells, 48 h
T1 sequence (Q9P0U3 1-644): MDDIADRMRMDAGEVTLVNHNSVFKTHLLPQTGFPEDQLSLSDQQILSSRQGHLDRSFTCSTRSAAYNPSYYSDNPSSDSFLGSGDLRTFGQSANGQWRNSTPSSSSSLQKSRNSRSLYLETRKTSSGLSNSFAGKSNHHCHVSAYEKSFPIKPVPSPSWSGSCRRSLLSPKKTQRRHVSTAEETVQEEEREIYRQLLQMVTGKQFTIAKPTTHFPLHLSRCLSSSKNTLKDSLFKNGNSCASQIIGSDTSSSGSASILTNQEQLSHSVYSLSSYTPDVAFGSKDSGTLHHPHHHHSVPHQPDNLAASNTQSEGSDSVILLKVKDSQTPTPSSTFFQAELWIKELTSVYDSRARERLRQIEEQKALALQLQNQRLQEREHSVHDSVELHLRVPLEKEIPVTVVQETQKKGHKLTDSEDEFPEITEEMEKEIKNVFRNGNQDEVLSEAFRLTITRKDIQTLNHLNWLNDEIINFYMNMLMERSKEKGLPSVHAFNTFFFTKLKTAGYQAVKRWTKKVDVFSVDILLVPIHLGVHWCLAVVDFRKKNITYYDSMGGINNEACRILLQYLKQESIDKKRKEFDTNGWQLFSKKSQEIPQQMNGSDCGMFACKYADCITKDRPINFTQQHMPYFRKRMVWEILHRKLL
Method: (§1) (A) Collection of Momordin Ic (Mc) natural compound analogues. […] Cell proliferation was determined by the sulforhodamine B (SRB) assay. […] IGROV1 CR cells were incubated with Mc at indicated concentrations for 48 h and then harvested for Western blot for indicated proteins. […] IGROV1 CR cells were incubated with UA and then treated as in C. […] Intensity of SUMOylated JAK2 was measured by Quantity One software. […] Recombinant His‐JAK2 was SUMOylated by in vitro SUMOylation assay, and then SUMOylated JAK2 proteins were incubated with or without recombinant GST‐SENP1 together with Mc for 3 h. […] In vitro assay was performed as in (F).
(A) Synthesis of UA derivatives. Reagents and conditions: (i) Ac2O, DMAP, Pyridine, r.t.; (ii) Oxalyl chloride, CH2Cl2, r.t., overnight; (iii) amines, TEA, r.t., 0.5–4 h; (iv) NaOH a.q., MeOH/THF, r.t.; (v) amines, MeOH, reflux; (vi) K2CO3, DMF, 60°C. The detail of synthesis was included in supplemental materials. […] (C) IGROV1 CR cells treated with indicated UAMMC9 for 48 h. Cells were then harvested and lysates were resolved on sodium dodecyl sulphate‐polyacrylamide gel electrophoresis, followed by immunoblotting for indicated proteins. (D) Cellular thermal shift assay to examine the interaction of UAMMC9 with SENP1. IGROV1 CR cells were incubated with DMSO or UAMMC9 for 4 h before treatment as in Figure 2A. (E) In vitro thermal shift assay to analyze the interactions of UAMMC9 with purified GST‐SENP1(C603A). Stability of SENP1(C603A) was analyzed by using Western blot against SENP1 antibody. […] Surface of hydrophobic amino acid residues in catalytic cleft was shown in yellow and that of hydrophilic amino acid residues was shown in magenta. Key amino acid residues were highlighted. […] The pictures were generated by Chimera.

SENP1 [2] = biological target: T1, SENP1; experiment: In vitro deSUMOylation assay (SUMOylated His-JAK2 + recombinant GST-SENP1); format: biochemical; details: read-out: SENP1 inhibition in vitro IC50
Method: as §1, with “(F). […]” for “(F).”

[3] = intensity of SUMOylated JAK2, read-out: SENP1 inhibition in cells IC50
[4] = recombinant GST-SENP1, SUMOylated His-JAK2, 3 h

Row | IC50 (SENP1 [1]; [3]) [nM] | IC50 (SENP1 [2]; [4]) [nM] | IC50 (SENP1 [1]; SUMOylated JAK2, read-out: SENP1 activity in cells IC50) | IC50 (SENP1 [2]; recombinant SENP1, SUMOylated JAK2) [nM] | SMILES
1 | 31800 | 19900 | – | – | CC1(C)CC[C@]2(C(=O)O)CC[C@]3(C)C(=CC[C@@H]4[C@@]5(C)CC[C@H](O[C@@H]6O[C@H](C(=O)O)[C@@H](O)[C@H](O[C@@H]7OC[C@@H](O)[C@H](O)[C@H]7O)[C@H]6O)C(C)(C)[C@@H]5CC[C@]43C)[C@@H]2C1 [Mc, Momordin Ιc]
2 | 240 | 6.4 | – | – | C[C@H]1[C@H](C)CC[C@]2(C(=O)O)CC[C@]3(C)C(=CC[C@@H]4[C@@]5(C)CC[C@H](O)C(C)(C)[C@@H]5CC[C@]43C)[C@H]12 [UA, ursolic acid, reference compound]
3 | – | – | 150 nM and 151 nM | 196 | C[C@H]1[C@H](C)CC[C@]2(C(=O)NCC(=O)N(C)CCO)CC[C@]3(C)C(=CC[C@@H]4[C@@]5(C)CC[C@H](O)C(C)(C)[C@@H]5CC[C@]43C)[C@H]12 [UAMMC9]
